Bounds are passed on as bounds.

A short description of data set [1]: Cytotoxicity against human MCF-10A cells assessed as inhibition of cell growth incubated for 72 hrs by MTT assay. In kind it is toxicity, cell-based.
Another data set deals with MDA-MB-453. Briefly: Cytotoxicity against human MDA-MB-453 cells assessed as inhibition of cell growth incubated for 72 hrs by MTT assay. In kind it is functional, cell-based. To be noted: MDA-MB-453, 72 h.
Data set [2] in a line: Selectivity ratio of IC50 for cytotoxicity against human MCF-10A cells assessed as inhibition of cell growth to IC50 for cytotoxicity against human MCF7 cells assessed as inhibition of cell growth. Type of data set: toxicity, cell-based. To be noted: MCF-10A cells versus MCF7 cells, read-out: Ratio IC50.
The nature of data set [3]: Selectivity ratio of IC50 for cytotoxicity against human HCEC cells assessed as inhibition of cell growth to IC50 for cytotoxicity against mouse 4T1 cells assessed as inhibition of cell growth. Type of data set: toxicity, cell-based. To be noted: HCEC cells versus 4T1 cells, read-out: Ratio IC50.
Data set [4] is described as follows: Selectivity ratio of IC50 for cytotoxicity against human HEK293 cells assessed as inhibition of cell growth to IC50 for cytotoxicity against human MDA-MB-453 cells assessed as inhibition of cell growth. In kind it is toxicity, cell-based. To be noted: HEK293 cells versus MDA-MB-453 cells, read-out: Ratio IC50.
Another data set concerns MCF7. As to the kind of experiment: Cytotoxicity against human MCF7 cells assessed as inhibition of cell growth incubated for 72 hrs by MTT assay. The following applies: MCF7, 72 h. Type of data set: functional, cell-based.
Data set [5] can be described thus: Selectivity ratio of IC50 for cytotoxicity against human HEK293 cells assessed as inhibition of cell growth to IC50 for cytotoxicity against mouse 4T1 cells assessed as inhibition of cell growth. In kind it is toxicity, cell-based. To be noted: HEK293 cells versus 4T1 cells, read-out: Ratio IC50.
A short description of data set [6]: Cytotoxicity against human HEK293 cells assessed as inhibition of cell growth incubated for 72 hrs by MTT assay. In kind it is toxicity, cell-based.
Data set [7] can be described thus: Cytotoxicity against human HCEC cells assessed as inhibition of cell growth incubated for 72 hrs by MTT assay. Type of data set: toxicity, cell-based. The following applies: for IC50 at 72 h: human, HCEC cells.
For another data set, the system named is 4T1. Briefly: Cytotoxicity against mouse 4T1 cells assessed as inhibition of cell growth incubated for 72 hrs by MTT assay. In kind it is functional, cell-based. The following applies: 4T1, 72 h.
Another data set has as its system MDA-MB-231. Briefly: Cytotoxicity against human MDA-MB-231 cells assessed as inhibition of cell growth incubated for 72 hrs by MTT assay. Type of data set: functional, cell-based. The following applies: MDA-MB-231, 72 h.
A short description of data set [8]: Selectivity ratio of IC50 for cytotoxicity against human HCEC cells assessed as inhibition of cell growth to IC50 for cytotoxicity against human MCF7 cells assessed as inhibition of cell growth. Type of data set: toxicity, cell-based. To be noted: HCEC cells versus MCF7 cells, read-out: Ratio IC50.
Data set [9] is described as follows: Selectivity ratio of IC50 for cytotoxicity against human HCEC cells assessed as inhibition of cell growth to IC50 for cytotoxicity against human MDA-MB-453 cells assessed as inhibition of cell growth. The following applies: HCEC cells versus MDA-MB-453 cells, read-out: Ratio IC50. Type of data set: toxicity, cell-based.
Data set [10] in a line: Selectivity ratio of IC50 for cytotoxicity against human MCF-10A cells assessed as inhibition of cell growth to IC50 for cytotoxicity against […] cells assessed as inhibition of cell growth. In kind it is toxicity, cell-based. The following applies: MCF-10A cells versus 4T1 cells, read-out: Ratio IC50.
Another data set deals with Histone deacetylase 3 (Homo sapiens, UniProt O15379). Briefly: Inhibition of human recombinant HDAC3 at 1 uM measured after 30 mins by fluorescence based microplate assay relative to control.
Data set [11] can be described thus: Selectivity ratio of IC50 for cytotoxicity against human HEK293 cells assessed as inhibition of cell growth to IC50 for cytotoxicity against human MCF7 cells assessed as inhibition of cell growth. Type of data set: toxicity, cell-based. The following applies: HEK293 cells versus MCF7 cells, read-out: Ratio IC50.
Data set [12] can be described thus: Selectivity ratio of IC50 for cytotoxicity against human MCF-10A cells assessed as inhibition of cell growth to IC50 for cytotoxicity against human MDA-MB-231 cells assessed as inhibition of cell growth. In kind it is toxicity, cell-based. To be noted: MCF-10A cells versus MDA-MB-231 cells, read-out: Ratio IC50.
Data set [13] is described as follows: Selectivity ratio of IC50 for cytotoxicity against human HEK293 cells assessed as inhibition of cell growth to IC50 for cytotoxicity against human MDA-MB-231 cells assessed as inhibition of cell growth. The following applies: HEK293 cells versus MDA-MB-231 cells, read-out: Ratio IC50. Type of data set: toxicity, cell-based.
A short description of data set [14]: Selectivity ratio of IC50 for cytotoxicity against human HCEC cells assessed as inhibition of cell growth to IC50 for cytotoxicity against human MDA-MB-231 cells assessed as inhibition of cell growth. In kind it is toxicity, cell-based. To be noted: HCEC cells versus MDA-MB-231 cells, read-out: Ratio IC50.
The nature of data set [15]: Selectivity ratio of IC50 for cytotoxicity against human MCF-10A cells assessed as inhibition of cell growth to IC50 for cytotoxicity against human MDA-MB-453 cells assessed as inhibition of cell growth. Type of data set: toxicity, cell-based. The following applies: MCF-10A cells versus MDA-MB-453 cells, read-out: Ratio IC50.
The next data set has as its target Histone deacetylase 1 (Homo sapiens, UniProt Q13547). As to the kind of experiment: Inhibition of full length N-terminal human recombinant HDAC1 at 1 uM incubated for 30 mins by fluorescence based microplate assay relative to control.
A further data set has as its target Histone deacetylase 2 (Homo sapiens, UniProt Q92769). Briefly: Inhibition of human recombinant HDAC2 at 1 uM incubated for 30 mins by fluorescence based microplate assay relative to control.

Sequence of Histone deacetylase 1 (Q13547 whole entry): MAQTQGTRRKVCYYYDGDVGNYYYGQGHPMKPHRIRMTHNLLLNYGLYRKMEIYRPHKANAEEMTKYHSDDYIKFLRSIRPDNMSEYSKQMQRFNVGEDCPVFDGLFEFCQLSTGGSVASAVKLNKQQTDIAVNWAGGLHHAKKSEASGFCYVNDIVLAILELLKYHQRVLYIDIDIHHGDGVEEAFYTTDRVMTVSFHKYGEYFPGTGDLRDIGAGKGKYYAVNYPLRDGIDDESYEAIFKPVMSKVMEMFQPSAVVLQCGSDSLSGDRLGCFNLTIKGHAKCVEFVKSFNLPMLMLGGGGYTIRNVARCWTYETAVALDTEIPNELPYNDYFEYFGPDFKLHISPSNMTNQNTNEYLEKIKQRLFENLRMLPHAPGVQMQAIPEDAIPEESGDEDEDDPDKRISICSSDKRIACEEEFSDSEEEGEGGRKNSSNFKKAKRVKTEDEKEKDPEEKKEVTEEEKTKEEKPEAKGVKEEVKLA
Sequence of Histone deacetylase 2 (Q92769 whole entry): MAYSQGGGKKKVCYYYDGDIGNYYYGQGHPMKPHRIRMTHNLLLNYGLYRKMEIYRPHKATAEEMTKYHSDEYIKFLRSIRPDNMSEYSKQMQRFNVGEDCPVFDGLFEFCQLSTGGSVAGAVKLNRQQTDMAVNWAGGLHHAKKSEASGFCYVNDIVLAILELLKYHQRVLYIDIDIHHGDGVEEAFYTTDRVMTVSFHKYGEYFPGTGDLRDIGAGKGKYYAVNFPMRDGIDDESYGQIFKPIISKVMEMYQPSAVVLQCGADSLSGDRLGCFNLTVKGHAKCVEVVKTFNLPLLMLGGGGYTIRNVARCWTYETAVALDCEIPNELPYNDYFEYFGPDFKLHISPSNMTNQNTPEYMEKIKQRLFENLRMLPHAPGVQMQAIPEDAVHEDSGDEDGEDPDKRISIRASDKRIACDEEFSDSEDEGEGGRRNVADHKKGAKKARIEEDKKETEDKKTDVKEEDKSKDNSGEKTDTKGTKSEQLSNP
Sequence of Histone deacetylase 3 (O15379 whole entry): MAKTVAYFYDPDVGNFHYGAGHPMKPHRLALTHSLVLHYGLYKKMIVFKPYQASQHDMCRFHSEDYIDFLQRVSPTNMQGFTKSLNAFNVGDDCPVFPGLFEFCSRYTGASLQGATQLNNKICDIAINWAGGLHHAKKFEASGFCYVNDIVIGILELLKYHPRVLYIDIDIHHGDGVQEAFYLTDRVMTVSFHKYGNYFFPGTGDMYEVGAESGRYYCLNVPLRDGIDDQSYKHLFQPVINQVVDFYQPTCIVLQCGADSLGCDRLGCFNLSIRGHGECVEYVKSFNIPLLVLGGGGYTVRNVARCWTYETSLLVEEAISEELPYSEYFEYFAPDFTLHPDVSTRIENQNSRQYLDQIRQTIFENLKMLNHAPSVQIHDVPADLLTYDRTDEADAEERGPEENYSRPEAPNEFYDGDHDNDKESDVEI

For `CCCCNNC(=O)c1cnc(NCc2ccccc2)cn1`, the IC50 at 72 h in data set [1] amounted to 113 µM; in data set [6], 133 µM; in [7] it was 129 µM. In addition, the IC50 in the data set on MDA-MB-453 stood at 3.33 µM; in the data set with MCF7, 2.16 µM; in the data set with 4T1 it was 1.6 µM; with MDA-MB-231, 132 µM. In addition, the selectivity ratio in [2], in data set [3], in data set [4], in [5], in data set [8] and in data set [9] was more than 40 in each case. For the same compound, the selectivity ratio in data set [10], in data set [11], in [12], in data set [13], in data set [14] and in data set [15] was more than 40 in each case. Moreover, the inhibition on Histone deacetylase 3 is more than 70%.
In the case of `CCCNNC(=O)c1cnc(NC(=O)c2ccc3ncccc3c2)cn1`, the half-inhibitory concentration (IC50) at 72 h in data set [1] is 140 µM; in [6], 126 µM; in [7] it was 131 µM. For the same compound, the IC50 in the data set on MDA-MB-453 came out at 1.82 µM; in the data set on MCF7, 1.01 µM; with 4T1 it was 0.59 µM; in the data set with MDA-MB-231 it was 0.87 µM. Besides, the selectivity ratio in data set [2], in data set [3], in data set [4], in data set [5], in data set [8] and in [9] was more than 40 each time. Moreover, the selectivity ratio in data set [10], in [11], in data set [12], in data set [13], in [14] and in data set [15] was more than 40 in each case. Further, the inhibition was less than 17% at Histone deacetylase 1, more than 70% on Histone deacetylase 3 and less than 17% at Histone deacetylase 2.
On to `CCCCNNC(=O)c1cnc(NCc2ccc(OC)cc2)cn1`, for which the IC50 at 72 h in [1] was found to be 109 µM; in [6], 107 µM. For the same compound, the IC50 in the data set with MDA-MB-453 came to 2.68 µM; in the data set on MCF7, 2.59 µM; in [7] (hcec), 1370 µM; with 4T1, 0.93 µM; in the data set with MDA-MB-231, 0.97 µM. Besides, the selectivity ratio in data set [2], in data set [3], in [4], in [5], in data set [8] and in data set [9] was more than 40 throughout. Besides, the selectivity ratio in [10], in data set [11], in [12], in [13], in data set [14] and in data set [15] was more than 40 in each case. In addition, the inhibition at Histone deacetylase 3 was more than 70%.
With `CCCNNC(=O)c1cnc(NC(=O)c2ccc3[nH]ccc3c2)cn1`, the IC50 at 72 h turned out to be 125 µM in data set [1], 138 µM in [6] and 180 µM in [7]. Besides, the IC50 in the data set on MDA-MB-453 is 2.19 µM; in the data set with MCF7, 2.03 µM; in the data set on 4T1, 0.71 µM; with MDA-MB-231 it was 0.92 µM. Besides, the selectivity ratio in data set [2], in data set [3], in data set [4], in data set [5], in [8] and in data set [9] was more than 40 each time. Besides, the selectivity ratio in data set [10], in data set [11], in [12], in [13], in data set [14] and in data set [15] was more than 40 each time. For the same compound, the results for the inhibition on Histone deacetylase 1, on Histone deacetylase 3 and at Histone deacetylase 2 were less than 17%, more than 70% and less than 17%, respectively.
In the case of `CCCNNC(=O)c1cnc(NCc2ccccc2)cn1`, the IC50 at 72 h in data set [1] was found to be 114 µM; in data set [6], 110 µM; in data set [7], 140 µM. The IC50 in the data set with MDA-MB-453 came to 2.76 µM; with MCF7, 1.12 µM; in the data set on 4T1, 1.15 µM; in the data set with MDA-MB-231, 1.23 µM. In addition, the selectivity ratio in data set [2], in data set [3], in data set [4], in data set [5], in data set [8] and in [9] was more than 40 in each case. Also, the selectivity ratio in data set [10], in data set [11], in data set [12], in data set [13], in data set [14] and in data set [15] was more than 40 throughout. Besides, the values for the inhibition at Histone deacetylase 1, on Histone deacetylase 3 and at Histone deacetylase 2 were less than 17%, more than 70% and less than 17%, respectively.
With `CCCNNC(=O)c1cnc(NC(C)=O)cn1`, the IC50 at 72 h in data set [1] worked out at 142 µM; in data set [6], 118 µM; in [7], 164 µM. Also, the IC50 worked out at 1.93 µM with MDA-MB-453, 1.21 µM in the data set on MCF7, 0.92 µM with 4T1 and 0.97 µM in the data set with MDA-MB-231. Besides, the selectivity ratio in data set [2], in data set [3], in data set [4], in [5], in data set [8] and in data set [9] was more than 40 each time. For the same compound, the selectivity ratio in [10], in [11], in [12], in data set [13], in data set [14] and in data set [15] was more than 40 throughout.
Regarding `CCCNNC(=O)c1cnc(Nc2ccccc2)cn1`, the IC50 at 72 h in data set [1] came out at 205 µM; in data set [6], 218 µM; in data set [7], 196 µM. For the same compound, the IC50 is 5.44 µM in the data set on MDA-MB-453, 3.28 µM with MCF7, 2.76 µM in the data set on 4T1 and 1.88 µM in the data set with MDA-MB-231. In addition, the selectivity ratio in data set [2], in data set [3], in data set [4], in [5], in [8] and in data set [9] was more than 40 in each case. The selectivity ratio in data set [10], in data set [11], in data set [12], in data set [13], in [14] and in data set [15] was more than 40 in each case. Moreover, the inhibition on Histone deacetylase 3 is more than 70%.
Turning to `CCCNNC(=O)c1cnc(N2CCCCC2)cn1`, the figures for the IC50 at 72 h in data set [1], in [6] and in data set [7] were 110 µM, 118 µM and 163 µM, respectively. Also, the IC50 in the data set with MDA-MB-453 is 2.87 µM; with MCF7 it was 2.44 µM; in the data set on 4T1, 0.89 µM; in the data set on MDA-MB-231, 132 µM. The selectivity ratio in data set [2], in [3], in data set [4], in data set [5], in data set [8] and in data set [9] was more than 40 throughout. Further, the selectivity ratio in [10], in data set [11], in data set [12], in data set [13], in [14] and in data set [15] was more than 40 in each case.

These data come from ChEMBL document CHEMBL5365457, “Selective HDAC3 Inhibitors with Potent In Vivo Antitumor Efficacy against Triple-Negative Breast Cancer” (J Med Chem, 2023).
